In US12465050B2, “Compositions comprising a pyridine carboxylate herbicide and protoporphyrinogen oxidase (protox) inhibitor herbicides” (priority 2018, dated 2025):

Legend:
Type in all cases: in vivo
[1] = tested on: Chenopodium album L. (common lambsquarters); test: Greenhouse postemergence herbicidal effect on CHEAL
From the text: (§1) Greenhouse Trial Methodology—Evaluation of Postemergence Herbicidal Effect
(§2) Seeds of the desired test plant species were planted in a 90:10% v/v (volume/volume) mixture of PRO-MIX® BX (Premier Tech Horticulture, Quakertown, Pa., USA) and PROFILE® GREENS GRADE™ (Profile Products LLC, Buffalo Grove, Ill., USA) planting mixture, which typically has a pH of 5.2 to 6.2 and an organic matter content of at least 50 percent, in plastic pots with a surface area of 103.2 square centimeters (cm^2). In some aspects or embodiments, to help ensure good germination and healthy plants, a fungicide treatment and/or other chemical or physical treatment was applied. The plants were grown for 7-36 days (d) in a greenhouse with an approximate 14-hour (h) photoperiod which was maintained at about 23° C. during the day and 22° C. during the night. Nutrients and water were added on a regular basis and supplemental lighting was provided with overhead metal halide 1000-Watt lamps as necessary. The plants were employed for testing when they reached the second or third true leaf stage.
(§3) Emulsifiable concentrates of each of each pyridine carboxylate herbicide (Compound A or Compound B) were prepared at 100 grams acid equivalent per liter (g ae/L). The emulsifiable concentrates also included a safener, cloquintocet mexyl, at 120 grams active ingredient per liter (g ai/L). An aliquot of each emulsifiable concentrate was placed in a 25 mL glass vial and diluted with an aqueous mixture of 1.25% (v/v) ACTIROB® B esterified rapeseed oil (Bayer Crop Science, Research Triangle Park, N.C., USA) or MSO® Concentrate with LECI-TECH® methylated soybean oil (Loveland Products, Loveland, Colo., USA) to obtain concentrated stock solutions at the highest application rate for each herbicide, based upon a 12 milliliter (mL) application volume at a rate of 187 liters per hectare (L/ha). The concentrated stock solutions were further diluted with an aqueous mixture of 1.25% v/v ACTIROB® B or MSO® Concentrate with LECI-TECH® to obtain stock solutions at reduced application rates for each herbicide. Spray solutions of the herbicide combinations (Compound A or Compound B plus PROTOX inhibitor herbicide) were prepared by adding weighed amounts or aliquots of the PROTOX inhibitor herbicides to the stock solutions of Compound A or Compound B to form 12-mL spray solutions in two-way combinations.
The spray solutions were applied to the plant material with an overhead Mandel track sprayer equipped with 8002E nozzles calibrated to deliver 187 L/ha over an application area of 0.503 square meters (m^2) at a spray height of 18 inches (43 centimeters (cm)) above the average plant canopy. Control plants were sprayed in the same manner with the solvent blank. All pyridine carboxylate herbicide (component a) application rates are given as “g ae/ha” and all PROTOX inhibitor herbicide (component b) application rates are given as “g ai/ha.”
(§4) The treated plants and control plants were placed in a greenhouse as described above and watered by sub-irrigation to prevent wash-off of the test compounds. After 20-22 d, the condition of the test plants as compared with that of the control plants was determined visually and scored on a scale of 0 to 100 percent where 0 corresponds to no injury and 100 corresponds to complete kill.

[2] = tested on: Cyanus segetum (cornflower); test: Greenhouse postemergence herbicidal effect on CENCY
From the text: as §1, §2
as §3, with “combinations. […]” for “combinations.”
as §4

[3] = tested on: Sorghum vulgare (sorghum); test: Greenhouse postemergence herbicidal effect on SORVU
From the text: as §1, §2
(§5) Emulsifiable concentrates of each of each pyridine carboxylate herbicide (Compound A or Compound B) were prepared at 100 grams acid equivalent per liter (g ae/L). The emulsifiable concentrates also included a safener, cloquintocet mexyl, at 120 grams active ingredient per liter (g ai/L). […]
as §4

[4] = tested on: Papaver rhoeas (herbicide-resistant poppy); test: Greenhouse postemergence herbicidal effect on PAPRH-RES
From the text: as §1, §2
as §3, with “combinations. […]” for “combinations.”
as §4

[5] = tested on: Anthemis arvensis (corn chamomile); test: Greenhouse postemergence herbicidal effect on ANTAR
From the text: as §1, §2
as §3, with “combinations. […]” for “combinations.”
as §4

[6] = tested on: Hordeum vulgare (winter barley); test: Greenhouse postemergence phytotoxicity on crop HORVW
From the text: as §1, §2
as §3, with “combinations. […]” for “combinations.”
as §4

[7] = tested on: Abutilon theophrasti (velvetleaf); test: Greenhouse postemergence herbicidal effect on ABUTH
From the text: as §1, §2, §5, §4

[8] = tested on: Papaver rhoeas (common poppy); test: Greenhouse postemergence herbicidal effect on PAPRH
From the text: as §1, §2
as §3, with “combinations. […]” for “combinations.”
as §4

[9] = Compound A 7.5, Oxyfluorfen 0 g/ha
[10] = Compound A 10, Oxyfluorfen 0 g/ha
[11] = Compound A 15, Oxyfluorfen 0 g/ha
[12] = Compound A 7.5, Saflufenacil 0 g/ha
[13] = Compound A 10, Saflufenacil 0 g/ha

N#CCOC(=O)c1nc(-c2ccc3cc[nH]c3c2F)c(F)c(N)c1Cl [Compound A, cyanomethyl 4-amino-3-chloro-5-fluoro-6-(7-fluoro-1H-indol-6-yl)pyridine-2-carboxylate]
% visual injury, Obs ([1]; Compound A 7.5, Pyraclonil 0 g/ha): 70%
% visual injury, Obs ([1]; Compound A 7.5, Pyraflufen-ethyl 0 g/ha): 75%
% visual injury, Obs ([1]; Compound A 10, Pyraclonil 0 g/ha): 83%
% visual injury, Obs ([1]; Compound A 10, Pyraflufen-ethyl 0 g/ha): 80%
% visual injury, Obs [2, 9]: 75%
% visual injury, Obs [2, 10]: 78%
% visual injury, Obs [2, 11]: 80%
% visual injury, Obs [3, 12]: 0%
% visual injury, Obs [3, 13]: 0%
% visual injury, Obs [4, 9]: 96%
% visual injury, Obs [4, 10]: 98%
% visual injury, Obs [4, 11]: 100%
% visual injury, Obs [5, 9]: 68%
% visual injury, Obs [5, 10]: 70%
% visual injury, Obs [5, 11]: 88%
% visual injury, Obs [6, 9]: 0%
% visual injury, Obs [6, 10]: 0%
% visual injury, Obs [6, 11]: 0%
% visual injury, Obs [7, 12]: 68%
% visual injury, Obs [7, 13]: 80%
% visual injury, Obs [8, 9]: 100%
% visual injury, Obs [8, 10]: 99%
% visual injury, Obs [8, 11]: 100%
